System: KRAS-mutant PDC multicell tumor spheroid viability
Assay: Anticancer human tumor 521955-158-R2-J5-PDC patient-derived pancreatic carcinoma cell line growth inhibition [KRAS2]
Settings: for IC50: curve of first compound; for viability, T/C: stronger effect = lower value
Method in brief: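 Combination screen of spheroid viability in tumor-cell co-cultures with endothelial (HUVEC) and mesenchymal stem cell stroma. Each agent was tested in half-log dilutions, topping at clinical Cmax or at 10 microM without a known Cmax.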

[1] = second compound 0.1 µM, first compound 0.0316 µM
[2] = second compound 0.1 µM, first compound 0.1 µM
[3] = second compound 0.1 µM, first compound 0.316 µM
[4] = second compound 0.1 µM, first compound 1 µM
[5] = second compound 0.1 µM, first compound 3.16 µM
[6] = second compound 0.316 µM, first compound 0.0316 µM
[7] = second compound 0.316 µM, first compound 0.1 µM
[8] = second compound 0.316 µM, first compound 0.316 µM
[9] = second compound 0.316 µM, first compound 1 µM
[10] = second compound 0.316 µM, first compound 3.16 µM
[11] = second compound 1 µM, first compound 0.0316 µM
[12] = second compound 1 µM, first compound 0.1 µM
[13] = second compound 1 µM, first compound 0.316 µM
[14] = second compound 1 µM, first compound 1 µM
[15] = second compound 1 µM, first compound 3.16 µM
[16] = second compound 3.16 µM, first compound 0.0316 µM
[17] = second compound 3.16 µM, first compound 0.1 µM
[18] = second compound 3.16 µM, first compound 0.316 µM
[19] = second compound 3.16 µM, first compound 1 µM
[20] = second compound 3.16 µM, first compound 3.16 µM
[21] = second compound 10 µM, first compound 0.0316 µM
[22] = second compound 10 µM, first compound 0.1 µM
[23] = second compound 10 µM, first compound 0.316 µM
[24] = second compound 10 µM, first compound 1 µM
[25] = second compound 10 µM, first compound 3.16 µM
[26] = second compound 0.1 µM, first compound 10 µM
[27] = second compound 0.316 µM, first compound 10 µM
[28] = second compound 1 µM, first compound 10 µM
[29] = second compound 3.16 µM, first compound 10 µM
[30] = second compound 10 µM, first compound 10 µM
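Note: viability read after seven days of drug exposure.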

SMILES | IC50 (second compound 0.1 µM) [nM] | IC50 (second compound 0.316 µM) [nM] | IC50 (second compound 1 µM) [nM] | IC50 (second compound 3.16 µM) [nM] | IC50 (second compound 10 µM) [nM] | viability, T/C [1] [%] | viability, T/C [2] [%] | viability, T/C [3] [%] | viability, T/C [4] [%] | viability, T/C [5] [%] | viability, T/C [6] [%] | viability, T/C [7] [%] | viability, T/C [8] [%] | viability, T/C [9] [%] | viability, T/C [10] [%] | viability, T/C [11] [%] | viability, T/C [12] [%] | viability, T/C [13] [%] | viability, T/C [14] [%] | viability, T/C [15] [%] | further results
CC1COCCN1c1cc(-c2ccnn2C)c2ccnc(-c3ccn[nH]3)c2n1 (stereo not given) + COc1cc2nc(C)nc(NC(C)c3cc(N)cc(C(F)(F)F)c3)c2cc1OC1CCOC1 | 21.4 | 21.7 | 21.4 | 23 | < 10 | 31.8 | 9.64 | 12.1 | 16.3 | 20.9 | 33 | 8.19 | 10.6 | 15.9 | 22.8 | 27.7 | 10.1 | 11.7 | 15.6 | 21.9 | viability, T/C (second compound 0.1 µM, first compound 0.01 µM): 85.3%; viability, T/C (second compound 0.316 µM, first compound 0.01 µM): 85%; viability, T/C (second compound 1 µM, first compound 0.01 µM): 93.4%; viability, T/C (second compound 3.16 µM, first compound 0.01 µM): 97.4%; viability, T/C [16]: 31.6%; viability, T/C [17]: 7.75%; viability, T/C [18]: 10.1%; viability, T/C [19]: 16.6%; viability, T/C [20]: 23.1%; viability, T/C (second compound 10 µM, first compound 0.01 µM): 39.6%; viability, T/C [21]: 9.76%; viability, T/C [22]: 4.43%; viability, T/C [23]: 7.6%; viability, T/C [24]: 16%; viability, T/C [25]: 12.9%
CC1OCC2(CCN(c3cnc(Sc4ccnc(N)c4Cl)c(N)n3)CC2)C1N (stereo not given) + COc1cc2nc(C)nc(NC(C)c3cc(N)cc(C(F)(F)F)c3)c2cc1OC1CCOC1 | > 10000 | > 10000 | > 10000 | > 10000 | 4270 | 87.6 | 83.6 | 77.6 | 75.9 | 72.5 | 82.3 | 97.1 | 85.9 | 71.9 | 64.2 | 105 | 92.1 | 82.4 | 74.4 | 72.1 | viability, T/C [26]: 56.6%; viability, T/C [27]: 55.4%; viability, T/C [28]: 62.5%; viability, T/C [16]: 111%; viability, T/C [17]: 102%; viability, T/C [18]: 88%; viability, T/C [19]: 83.8%; viability, T/C [20]: 80.3%; viability, T/C [29]: 84.6%; viability, T/C [21]: 90.4%; viability, T/C [22]: 84.7%; viability, T/C [23]: 76.9%; viability, T/C [24]: 65.9%; viability, T/C [25]: 58.5%; viability, T/C [30]: 35%
Cn1nccc1Nc1nccc(-c2cc3c(s2)C(C)(C)N(CCN2CCOCC2)C3=O)n1 + COc1cc2nc(C)nc(NC(C)c3cc(N)cc(C(F)(F)F)c3)c2cc1OC1CCOC1 | 355 | 522 | 574 | 510 | 104 | 92.5 | 77.9 | 47.1 | 36.8 | 24.6 | 104 | 83.7 | 57.2 | 40 | 23.8 | 83.2 | 87.6 | 62 | 37 | 21.2 | viability, T/C [26]: 17.6%; viability, T/C [27]: 16.6%; viability, T/C [28]: 13.9%; viability, T/C [16]: 86%; viability, T/C [17]: 75.3%; viability, T/C [18]: 60.8%; viability, T/C [19]: 36.1%; viability, T/C [20]: 17.4%; viability, T/C [29]: 8.1%; viability, T/C [21]: 76.8%; viability, T/C [22]: 51%; viability, T/C [23]: 16.8%; viability, T/C [24]: 4.05%; viability, T/C [25]: 1.96%; viability, T/C [30]: 0.81%
